In PubChem BioAssay AID330 (DTP/NCI, 2004):
Several values for one entry are separate records, joined by “and”; a condition that tells them apart may be missing. Equal entries are not always repeated. Toxic doses and inconclusive results are not listed.

System: P388 leukemia ip, CD2F1 mice, survival T/C
Test: NCI In Vivo Anticancer Drug Screen. Data for tumor model P388 Leukemia (intraperitoneal) in CD2F1 (CDF1) mice
Details: endpoint: median survival time, higher = longer survival
Summary of the method: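 Mice carrying the transplanted tumor received test compound or vehicle. Survival was recorded in each group, and the value is the treated-group measurement divided by that of the vehicle-treated control group.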

[1] = dose: 60.0 mg/kg/injection, schedule: Q01DX005 (ip), vehicle: saline with Tween-80
[2] = dose: 50.0 mg/kg/injection, schedule: Q01DX005 (ip), vehicle: Klucel (hydroxypropylcellulose) (HPC)
[3] = dose: 100.0 mg/kg/injection, schedule: Q01DX005 (ip), vehicle: Klucel (hydroxypropylcellulose) (HPC)
[4] = dose: 200.0 mg/kg/injection, schedule: Q01DX005 (ip), vehicle: Klucel (hydroxypropylcellulose) (HPC)
[5] = dose: 50.0 mg/kg/injection, schedule: Q01DX005 (ip), vehicle: saline with Tween-80
[6] = dose: 100.0 mg/kg/injection, schedule: Q01DX005 (ip), vehicle: saline with Tween-80
[7] = dose: 200.0 mg/kg/injection, schedule: Q01DX005 (ip), vehicle: saline with Tween-80
[8] = dose: 12.5 mg/kg/injection, schedule: Q01DX009 (ip), vehicle: Klucel (hydroxypropylcellulose) (HPC)
[9] = dose: 25.0 mg/kg/injection, schedule: Q01DX009 (ip), vehicle: Klucel (hydroxypropylcellulose) (HPC)
[10] = dose: 50.0 mg/kg/injection, schedule: Q01DX009 (ip), vehicle: Klucel (hydroxypropylcellulose) (HPC)
[11] = dose: 100.0 mg/kg/injection, schedule: Q01DX009 (ip), vehicle: Klucel (hydroxypropylcellulose) (HPC)
[12] = dose: 60.0 mg/kg/injection, schedule: Q01DX005 (ip), vehicle: Klucel (hydroxypropylcellulose) (HPC)
[13] = dose: 120.0 mg/kg/injection, schedule: Q01DX005 (ip), vehicle: Klucel (hydroxypropylcellulose) (HPC)
[14] = dose: 50.0 mg/kg/injection, schedule: Q01DX009 (ip), vehicle: saline
[15] = dose: 100.0 mg/kg/injection, schedule: Q01DX009 (ip), vehicle: saline
[16] = dose: 200.0 mg/kg/injection, schedule: Q01DX009 (ip), vehicle: saline
[17] = dose: 50.0 mg/kg/injection, schedule: Q01DX009 (ip), vehicle: saline with Tween-80
[18] = dose: 50.0 mg/kg/injection, schedule: Q04DX003 (ip), vehicle: Klucel (hydroxypropylcellulose) (HPC)
[19] = dose: 100.0 mg/kg/injection, schedule: Q04DX003 (ip), vehicle: Klucel (hydroxypropylcellulose) (HPC)

Cc1cc2[nH]c3c(C#N)c(OC(=O)N(C)C)c(C)c(=O)n3c2cc1C
T/C (dose: 15.0 mg/kg/injection, schedule: Q01DX005 (ip), vehicle: saline with Tween-80): 100 % of control | T/C (dose: 30.0 mg/kg/injection, schedule: Q01DX005 (ip), vehicle: saline with Tween-80): 108 % of control | T/C [1]: 100 % of control and 93 % of control

O=c1[nH]c(Cl)nc2nc(Cl)[nH]c12
T/C [2]: 100 % of control | T/C [3]: 101 % of control | T/C [4]: 100 % of control

CC1=Cc2cc(C)cc(C)c2C1=O
T/C [5]: 90 % of control | T/C [6]: 93 % of control | T/C [7]: 96 % of control

O=[N+]([O-])c1ccc(Oc2ccccc2[N+](=O)[O-])nc1
T/C (dose: 6.25 mg/kg/injection, schedule: Q01DX009 (ip), vehicle: Klucel (hydroxypropylcellulose) (HPC)): 106 % of control | T/C [8]: 105 % of control | T/C [9]: 103 % of control

CC(Cl)CN(CC(C)Cl)c1ccc(-c2ccccc2)cc1 (stereo not given)
T/C [10]: 105 % of control and 109 % of control | T/C [11]: 124 % of control

C=C(c1ccccc1)c1ccccc1-c1ccccc1C(=C)c1ccccc1
T/C (dose: 100.0 mg/kg/injection, schedule: Q04DX003 (ip), vehicle: saline): 99 % of control | T/C (dose: 200.0 mg/kg/injection, schedule: Q04DX003 (ip), vehicle: saline): 100 % of control | T/C (dose: 400.0 mg/kg/injection, schedule: Q04DX003 (ip), vehicle: saline): 98 % of control

COc1cc2c(cc1[N+](=O)[O-])C(=O)C(Br)(Br)CCC2
T/C [10]: 116 % of control | T/C [11]: 119 % of control

CCCCCCCCCCCCOC(=O)/C=C\C(=O)NC(N)=O
T/C (dose: 100.0 mg/kg/injection, schedule: Q04DX002 (ip), vehicle: Klucel (hydroxypropylcellulose) (HPC)): 117 % of control | T/C (dose: 200.0 mg/kg/injection, schedule: Q04DX002 (ip), vehicle: Klucel (hydroxypropylcellulose) (HPC)): 123 % of control

O/C(=C\C(=S)S)c1ccccc1
T/C (dose: 1.56 mg/kg/injection, schedule: Q04DX003 (ip), vehicle: Klucel (hydroxypropylcellulose) (HPC)): 96 % of control | T/C (dose: 3.12 mg/kg/injection, schedule: Q04DX003 (ip), vehicle: Klucel (hydroxypropylcellulose) (HPC)): 96 % of control | T/C (dose: 6.25 mg/kg/injection, schedule: Q04DX003 (ip), vehicle: Klucel (hydroxypropylcellulose) (HPC)): 97 % of control

O=c1cccc2c3ccccc3ccn12
T/C [12]: 91 % of control | T/C [13]: 95 % of control

COC(=O)C1C(=O)C(C(=O)OC)C2(C)C(C(=O)OC)C(=O)C(C(=O)OC)C12C (stereo not given)
T/C [12]: 103 % of control | T/C [13]: 102 % of control | T/C (dose: 240.0 mg/kg/injection, schedule: Q01DX005 (ip), vehicle: Klucel (hydroxypropylcellulose) (HPC)): 103 % of control

N#CSC1=C(SC#N)C1(F)F
T/C (dose: 12.5 mg/kg/injection, schedule: Q04DX002 (ip), vehicle: Klucel (hydroxypropylcellulose) (HPC)): 100 % of control | T/C (dose: 25.0 mg/kg/injection, schedule: Q04DX002 (ip), vehicle: Klucel (hydroxypropylcellulose) (HPC)): 100 % of control | T/C (dose: 50.0 mg/kg/injection, schedule: Q04DX002 (ip), vehicle: Klucel (hydroxypropylcellulose) (HPC)): 104 % of control

CC(C)=C(C#C[Si](C)(C)C)OS(=O)(=O)C(F)(F)F
T/C [5]: 100 % of control | T/C [6]: 101 % of control | T/C [7]: 101 % of control

Nc1cc(=O)c2[nH]cnc2[nH]1
T/C (dose: 12.5 mg/kg/injection, schedule: Q01DX009 (ip), vehicle: saline): 103 % of control | T/C (dose: 25.0 mg/kg/injection, schedule: Q01DX009 (ip), vehicle: saline): 90 % of control | T/C [5]: 101 % of control | T/C [14]: 98 % of control and 101 % of control | T/C [6]: 106 % of control | T/C [15]: 103 % of control | T/C [7]: 107 % of control | T/C [16]: 88 % of control

CCCC(NC(N)=O)C(CCC)NC(N)=O (stereo not given)
T/C [17]: 102 % of control

CCCCCCCCCC[N+]1([O-])CCCCC1
T/C [14]: 97 % of control

CN(C)c1ccc(-c2c3ccccc3nc3ccccc23)cc1
T/C (dose: 12.5 mg/kg/injection, schedule: Q01DX009 (ip), vehicle: saline with Tween-80): 90 % of control | T/C (dose: 25.0 mg/kg/injection, schedule: Q01DX009 (ip), vehicle: saline with Tween-80): 90 % of control | T/C [17]: 100 % of control

CC1(CO)CCCC1NCCNC1CCCC1(C)CO (stereo not given)
T/C [1]: 102 % of control | T/C (dose: 120.0 mg/kg/injection, schedule: Q01DX005 (ip), vehicle: saline with Tween-80): 105 % of control

CC#CC#C/C=C1/C=CC(=O)O1
T/C [8]: 105 % of control | T/C [9]: 104 % of control | T/C [10]: 107 % of control | T/C [11]: 107 % of control

FC(F)(F)C1=C(C(F)(F)F)OP23(OCCC(CO2)O3)O1 (stereo not given)
T/C [18]: 105 % of control | T/C [19]: 108 % of control | T/C (dose: 200.0 mg/kg/injection, schedule: Q04DX003 (ip), vehicle: Klucel (hydroxypropylcellulose) (HPC)): 99 % of control | T/C (dose: 400.0 mg/kg/injection, schedule: Q04DX003 (ip), vehicle: Klucel (hydroxypropylcellulose) (HPC)): 103 % of control

COc1ccc(CCN2C=CC(C#N)C=C2)cc1OC
T/C [2]: 91 % of control | T/C [3]: 101 % of control | T/C [4]: 98 % of control

C[n+]1c2ccccc2c(Cc2ccccc2)c2ccccc21
T/C (dose: 12.5 mg/kg/injection, schedule: Q01DX005 (ip), vehicle: saline with Tween-80): 108 % of control | T/C (dose: 25.0 mg/kg/injection, schedule: Q01DX005 (ip), vehicle: saline with Tween-80): 106 % of control | T/C [5]: 100 % of control and 94 % of control

CC(=O)C1C(C)C(C(C)=O)N2C1SC1CCOC12C (stereo not given)
T/C (dose: 10.0 mg/kg/injection, schedule: Q01DX001 (ip), vehicle: suspension in saline): 106 % of control | T/C (dose: 20.0 mg/kg/injection, schedule: Q01DX001 (ip), vehicle: suspension in saline): 105 % of control | T/C (dose: 40.0 mg/kg/injection, schedule: Q01DX001 (ip), vehicle: suspension in saline): 101 % of control | T/C (dose: 80.0 mg/kg/injection, schedule: Q01DX001 (ip), vehicle: suspension in saline): 102 % of control

CCCCN(CCCC)CCC(=O)OCC
T/C (dose: 100.0 mg/kg/injection, schedule: Q04DX003 (ip), vehicle: saline with Tween-80): 104 % of control | T/C (dose: 200.0 mg/kg/injection, schedule: Q04DX003 (ip), vehicle: saline with Tween-80): 100 % of control | T/C (dose: 400.0 mg/kg/injection, schedule: Q04DX003 (ip), vehicle: saline with Tween-80): 109 % of control

CCN(CC)CCOCCO
T/C [14]: 100 % of control | T/C [15]: 109 % of control | T/C [16]: 100 % of control

CSC1=NN(C)C2(CCCCC2)C(=O)N1
T/C [10]: 115 % of control | T/C [11]: 96 % of control | T/C (dose: 200.0 mg/kg/injection, schedule: Q01DX009 (ip), vehicle: Klucel (hydroxypropylcellulose) (HPC)): 118 % of control

CCN(CC)CCNC(=O)c1nn(-c2ccccc2)c2c1CCCc1ccccc1-2
T/C (dose: 25.0 mg/kg/injection, schedule: Q04DX003 (ip), vehicle: Klucel (hydroxypropylcellulose) (HPC)): 101 % of control | T/C [18]: 101 % of control | T/C [19]: 99 % of control and 92 % of control

COCC1(O)C=CC(=O)O1 (stereo not given)
T/C (dose: 50.0 mg/kg/injection, schedule: Q01DX005 (ip), vehicle: saline): 105 % of control

COc1ccc2c(c1OC(C)=O)-c1cc(OC(C)=O)cc3c1C(C2)N(C(=O)CN(CCCl)CCCl)CC3 (stereo not given)
T/C (dose: 6.25 mg/kg/injection, schedule: Q04DX003 (ip), vehicle: other): 150 % of control | T/C (dose: 12.5 mg/kg/injection, schedule: Q04DX003 (ip), vehicle: other): 170 % of control | T/C (dose: 25.0 mg/kg/injection, schedule: Q04DX003 (ip), vehicle: DMSO): 170 % of control | T/C (dose: 25.0 mg/kg/injection, schedule: Q04DX003 (ip), vehicle: other): 185 % of control | T/C (dose: 50.0 mg/kg/injection, schedule: Q04DX003 (ip), vehicle: DMSO): 94 % of control | T/C (dose: 50.0 mg/kg/injection, schedule: Q04DX003 (ip), vehicle: other): 95 % of control

COC(=O)C1(C(C)C(=O)c2ccc(Cl)cc2)NC(=S)NC(=O)C1C#N (stereo not given)
T/C (dose: 60.0 mg/kg/injection, schedule: Q01DX005 (ip), vehicle: saline): 104 % of control | T/C (dose: 120.0 mg/kg/injection, schedule: Q01DX005 (ip), vehicle: saline): 106 % of control | T/C (dose: 240.0 mg/kg/injection, schedule: Q01DX005 (ip), vehicle: saline): 108 % of control
